Test results from patent US7829568B2, “Substituted 5,6,7,8-tetrahydroimidazo[1,2-a]pyridin-2-ylamine compounds and their use for producing drugs” (Gruenenthal GmbH, priority 2005, dated 2010).

Tested on: batrachotoxin (BTX) binding site of the sodium channel
Experiment: Affinity to the batrachotoxin (BTX) binding site of the sodium channel
Design: species or system rat
Settings: [3H]-batrachotoxinin A20 α-benzoate 10 nM; synaptosomes from rat cerebral cortex; test concentration not given

Row | Structure (SMILES) | BTX inhibition (rat) (% inhibition)
1 | CCCCN(C(=O)c1cccc(Cl)c1)c1nc2n(c1C(=O)NC(C)CCc1ccccc1)CCCC2 (centres unmarked) [Example 145, 2-[butyl-(3-chloro-benzoyl)-amino]-5,6,7,8-tetrahydro-imidazo[1,2-a]pyridine-3-carboxylic acid (1-methyl-3-phenyl-propyl)-amide] | 67%
2 | COc1cc(OC)c(CN2CCN(C(=O)c3c(N(C)C(=O)c4cccc(Cl)c4)nc4n3CCCC4)CC2)c(OC)c1 [Example 146, 3-chloro-N-methyl-N-{3-[4-(2,4,6-trimethoxy-benzyl)-piperazine-1-carbonyl]-5,6,7,8-tetrahydro-imidazo[1,2-a]pyridin-2-yl}-benzamide] | 70%
3 | CCCCN(C(=O)c1cccc(Cl)c1)c1nc2n(c1C(=O)NC(c1ccccc1)c1ccccc1)CCCC2 [Example 147, 2-[butyl-(3-chloro-benzoyl)-amino]-5,6,7,8-tetrahydro-imidazo[1,2-a]pyridine-3-carboxylic acid benzhydryl-amide] | 56%
4 | CN(C(=O)c1cccc2ccccc12)c1nc2n(c1C(=O)N1CCN(c3ccccc3Cl)CC1)CCCC2 [Example 148, naphthalene-1-carboxylic acid {3-[4-(2-chloro-phenyl)-piperazine-1-carbonyl]-5,6,7,8-tetrahydro-imidazo[1,2-a]pyridin-2-yl}-methyl-amide] | 35%
5 | CCCCN(C(=O)c1ccc(F)c(F)c1)c1nc2n(c1C(=O)N1CCN(Cc3ccc(Cl)cc3)CC1)CCCC2 [Example 150, N-butyl-N-{3-[4-(4-chlorobenzyl)-piperazine-1-carbonyl]-5,6,7,8-tetrahydro-imidazo[1,2-a]pyridin-2-yl}-3,4-difluoro-benzamide] | 69%
6 | CCCCN(C(=O)c1cccc(Cl)c1)c1nc2n(c1C(=O)Nc1ccc(C(C)(C)C)cc1)CCCC2 [Example 152, 2-[butyl-(3-chloro-benzoyl)-amino]-5,6,7,8-tetrahydro-imidazo[1,2-a]pyridine-3-carboxylic acid (4-tert-butyl-phenyl)-amide] | 92%
7 | CN(C(=O)c1cccc2ccccc12)c1nc2n(c1C(=O)NC1CCCCC1)CCCC2 [Example 154, 2-[methyl-(naphthalene-1-carbonyl)-amino]-5,6,7,8-tetrahydro-imidazo[1,2-a]pyridine-3-carboxylic acid cyclohexylamide] | 92%
8 | CN(C(=O)Cc1ccccc1)c1nc2n(c1C(=O)NCCc1cccc(C(F)(F)F)c1)CCCC2 [Example 156, 2-(methyl-phenylacetyl-amino)-5,6,7,8-tetrahydro-imidazo[1,2-a]pyridine-3-carboxylic acid [2-(3-trifluoromethyl-phenyl)-ethyl]-amide] | 40%
9 | CN(C(=O)c1ccccc1)c1nc2n(c1C(=O)NCc1ccc(Cl)cc1)CCCC2 [Example 157, 2-(benzoyl-methyl-amino)-5,6,7,8-tetrahydro-imidazo[1,2-a]pyridine-3-carboxylic acid 4-chloro-benzylamide] | 43%
10 | CCCCN(C(=O)c1cccc(Cl)c1)c1nc2n(c1C(=O)NCc1cccc(F)c1)CCCC2 [Example 158, 2-[butyl-(3-chloro-benzoyl)-amino]-5,6,7,8-tetrahydro-imidazo[1,2-a]pyridine-3-carboxylic acid 3-fluoro-benzylamide] | 33%
11 | Cc1ccc(NC(=O)c2c(N(C)C(=O)Cc3ccccc3)nc3n2CCCC3)cc1 [Example 159, 2-(methyl-phenylacetyl-amino)-5,6,7,8-tetrahydro-imidazo[1,2-a]pyridine-3-carboxylic acid p-tolylamide] | 37%
12 | CCCCN(C(=O)c1ccc(F)c(F)c1)c1nc2n(c1C(=O)NC1CCCCC1OCc1ccccc1)CCCC2 (centres unmarked) [Example 161, 2-[butyl-(3,4-difluoro-benzoyl)-amino]-5,6,7,8-tetrahydro-imidazo[1,2-a]pyridine-3-carboxylic acid (2-benzyloxy-cyclohexyl)-amide] | 49%
13 | CC(CNC(=O)c1c(N(C)C(=O)c2cccc3ccccc23)nc2n1CCCC2)c1ccc(Cl)cc1 (centres unmarked) [Example 163, 2-[methyl-(naphthalene-1-carbonyl)-amino]-5,6,7,8-tetrahydro-imidazo[1,2-a]pyridine-3-carboxylic acid [2-(4-chlor-phenyl)-propyl]-amide] | 40%
14 | CC(NC(=O)c1c(N(C)C(=O)c2cccc(Cl)c2)nc2n1CCCC2)C12CC3CC(CC(C3)C1)C2 (centres unmarked) [Example 165, 2-[(3-chloro-benzoyl)-methyl-amino]-5,6,7,8-tetrahydro-imidazo[1,2-a]pyridine-3-carboxylic acid (1-adamantan-1-yl-ethyl)-amide] | 39%
15 | CN(C(=O)c1ccccc1)c1nc2n(c1C(=O)NC(c1ccccc1)c1ccc(Cl)cc1)CCCC2 (centres unmarked) [Example 166, 2-(benzoyl-methyl-amino)-5,6,7,8-tetrahydro-imidazo[1,2-a]pyridine-3-carboxylic acid [(4-chloro-phenyl)-phenyl-methyl]-amide] | 72%
16 | CN(C(=O)c1ccccc1)c1nc2n(c1C(=O)N1CCN(c3ccc(C(F)(F)F)cc3)CC1)CCCC2 [Example 167, N-methyl-N-{3-[4-(4-trifluoromethyl-phenyl)-piperazine-1-carbonyl]-5,6,7,8-tetrahydro-imidazo[1,2-a]pyridin-2-yl}-benzamide] | 44%
17 | CN(C(=O)Cc1ccccc1)c1nc2n(c1C(=O)N(C)C1CCN(Cc3ccc(-c4ccccc4)cc3)C1)CCCC2 (centres unmarked) [Example 168, 2-(methyl-phenylacetyl-amino)-5,6,7,8-tetrahydro-imidazo[1,2-a]pyridine-3-carboxylic acid (1-biphenyl-4-ylmethyl-pyrrolidin-3-yl)-methyl-amide] | 92%
18 | CN(C(=O)c1cccc2ccccc12)c1nc2n(c1C(=O)Nc1ccc(C(C)(C)C)cc1)CCCC2 [Example 170, 2-[methyl-(naphthalene-1-carbonyl)-amino]-5,6,7,8-tetrahydro-imidazo[1,2-a]pyridine-3-carboxylic acid (4-tert-butyl-phenyl)-amide] | 80%
19 | CCCCN(C(=O)c1ccc(F)c(F)c1)c1nc2n(c1C(=O)NCCC(C)(C)C)CCCC2 [Example 171, 2-[butyl-(3,4-difluoro-benzoyl)-amino]-5,6,7,8-tetrahydro-imidazo[1,2-a]pyridine-3-carboxylic acid (3,3-dimethyl-butyl)-amide] | 47%
20 | CCCCN(C(=O)c1cccc(Cl)c1)c1nc2n(c1C(=O)NC1CCN(Cc3cc(OC)c(OC)cc3Br)C1)CCCC2 (centres unmarked) [Example 172, 2-[butyl-(3-chloro-benzoyl)-amino]-5,6,7,8-tetrahydro-imidazo[1,2-a]pyridine-3-carboxylic acid [1-(2-bromo-4,5-dimethoxy-benzyl)-pyrrolidin-3-yl]-amide] | 96%
21 | CN(C(=O)c1cccc2ccccc12)c1nc2n(c1C(=O)N1CCN(CC=Cc3ccccc3)CC1)CCCC2 [Example 173, naphthalene-1-carboxylic acid methyl-{3-[4-(3-phenyl-allyl)-piperazine-1-carbonyl]-5,6,7,8-tetrahydro-imidazo[1,2-a]pyridin-2-yl}-amide] | 74%
22 | CN(C(=O)c1cccc2ccccc12)c1nc2n(c1C(=O)N1CCN(CCc3ccccc3)CC1)CCCC2 [Example 174, naphthalene-1-carboxylic acid methyl-[3-(4-phenethyl-piperazine-1-carbonyl)-5,6,7,8-tetrahydro-imidazo[1,2-a]pyridin-2-yl]-amide] | 47%
23 | CCCCN(C(=O)c1cccc(Cl)c1)c1nc2n(c1C(=O)N1CCC(O)(c3cccc(C(F)(F)F)c3)CC1)CCCC2 [Example 175, N-butyl-3-chloro-N-{3-[4-hydroxy-4-(3-trifluoromethyl-phenyl)-piperidine-1-carbonyl]-5,6,7,8-tetrahydro-imidazo[1,2-a]pyridin-2-yl}-benzamide] | 65%
24 | CN(C(=O)Cc1ccccc1)c1nc2n(c1C(=O)N1CCN(CCCc3ccccc3)CC1)CCCC2 [Example 176, N-methyl-2-phenyl-N-{3-[4-(3-phenyl-propyl)-piperazine-1-carbonyl]-5,6,7,8-tetrahydro-imidazo[1,2-a]pyridin-2-yl}-acetamide] | 71%
25 | CCCCN(C(=O)c1ccc(F)c(F)c1)c1nc2n(c1C(=O)N1CCN(c3ccccc3Cl)CC1)CCCC2 [Example 178, N-butyl-N-{3-[4-(2-chloro-phenyl)-piperazine-1-carbonyl]-5,6,7,8-tetrahydro-imidazo[1,2-a]pyridin-2-yl}-3,4-difluoro-benzamide] | 79%
26 | CCCCN(C(=O)c1ccc(F)c(F)c1)c1nc2n(c1C(=O)NCCC(c1ccccc1)c1ccccc1)CCCC2 [Example 180, 2-[butyl-(3,4-difluoro-benzoyl)-amino]-5,6,7,8-tetrahydro-imidazo[1,2-a]pyridine-3-carboxylic acid (3,3-diphenyl-propyl)-amide] | 62%
27 | CCCCN(C(=O)c1cccc(Cl)c1)c1nc2n(c1C(=O)Nc1ccc3c(c1)OCCO3)CCCC2 [Example 181, 2-[butyl-(3-chloro-benzoyl)-amino]-5,6,7,8-tetrahydro-imidazo[1,2-a]pyridine-3-carboxylic acid (2,3-dihydro-benzo[1,4]dioxin-6-yl)-amide] | 82%
28 | CN(C(=O)c1cccc2ccccc12)c1nc2n(c1C(=O)Nc1ccc(Oc3ccccc3)cc1)CCCC2 [Example 185, 2-[methyl-(naphthalene-1-carbonyl)-amino]-5,6,7,8-tetrahydro-imidazo[1,2-a]pyridine-3-carboxylic acid (4-phenoxy-phenyl)-amide] | 74%
29 | CCCCN(C(=O)c1ccc(F)c(F)c1)c1nc2n(c1C(=O)N1CCN(c3ccc(C(F)(F)F)cn3)CC1)CCCC2 [Example 187, N-butyl-3,4-difluoro-N-{3-[4-(5-trifluoromethyl-pyridin-2-yl)-piperazine-1-carbonyl]-5,6,7,8-tetrahydro-imidazo[1,2-a]pyridin-2-yl}-benzamide] | 41%
